According to US20090258849A1, “NITROOXY DERIVATIVES OF GLUCOCORTICOIDS” (Nicox S.A., priority 2005, published 2009):

What was measured:
[1] = system: TPA-induced ear oedema; assay: Inhibition of TPA-induced ear oedema after topical administration; assay type: in vivo, male Swiss mice; details: TPA 2 μg/ear, topical 20 μL of 0.39 nM solution in ethanol 15 min before TPA, ear weight change; for % inhibition 3 hours post-treatment: 3 h post TPA; for % inhibition 5 hours post-treatment: 5 h post TPA
Description: The tested compounds are: • (11β,16α)-9-fluoro-11-hydroxy-16,17-[1-methylethylidene bis(oxy)]-21-[1-oxo-[4-(nitrooxymethyl)benzoxy]]pregna-1,4-diene-3,20-dione, prepared as described in example 1; • Triamcinolone acetonide that is the reference compound for the compound of example 1; • (11β)-17-[(ethoxycarbonyl)oxy]-11-hydroxy-21-[1-oxo-[4-(nitrooxy methyl)benzoxy]]pregna-1,4-diene-3,20-dione, prepared as described in example 2; • Prednicarbate that is the reference compound for the compound of example 2; The tests were performed according to the methods described by Carlson et al., Agents Actions 17:197-204, 1985, and Lucas et al., J Pharmacol Exp Ther 304:1172-1180, 2003.
Groups of 5-9 male Swiss mice of 27±5 g were used. Inflammation dermatitis was induced by applying 2 μg/ear of TPA (Tetradecanoyl Phorbol Acetate) dissolved with ethanol absolute on the surface of either the dorsal aspect of both ears (20 μL/ear).
15 min before the application of TPA, mice received topically 20 μL of a solution of test compounds (0.39 nM in ethanol) per site applied directly on the skin of the left ear and the vehicle (ethanol 100%) on right ear. Vehicle-Vehicle treated mice were included as negative control group. Compounds were tested at equimolecular doses.
Animals were sacrificed at 3 h or 5 h post TPA dose. Equal sections of both ears were punched out immediately after and weighed. The percentage of change of the weight of left ear versus the weight of right ear was calculated for each animal, and the percentage of inhibition of change in weight of treated animals versus the change in weight of non-treated animals (negative control) was measured.

[2] = system: irritant contact dermatitis induced by benzalkonium chloride; assay: Contact dermatitis induced by benzalkonium in mice (ear edema); assay type: in vivo; design: Ear edema (left ears) value: unit not given here
Description: Irritant contact dermatitis was induced by applying 5% benzalkonium chloride (100 μl per site, dissolved in olive oil:acetone, 1:5 v/v) on the dorsal aspect of the two ears. Ear diameter was measured as a parameter for edema formation, before and hourly for 6 hours after benzalkonium chloride application, using an electronic caliper. The last measurement was performed at 8-hours after dermatitis induction.
(§1) The tested compounds were applied topically dissolved in ethanol:sterile water (1:1) and applied at a final volume of 100 μl, five minutes after irritant contact dermatitis will be induced.
Ear edema (left ears) value for times 1 to 4 hours after irritant stimuli with benzalkonium chloride are represented in the table 3.

[3] = system: dermal microvasculature, leukocyte/endothelial cells interaction; assay: Intravital microscopy of skin flap in mice (vessel diameter, rolling leukocytes); assay type: in vivo, C57B16 male mice; design: unit not given here; details: 3 nmol topical
Description: C57B16 male mice will be anaesthetized by intraperitoneal injection of a mixture of 10 mg/kg xylazine (MTC Pharmaceuticals, Cambridge, Ontario, Canada) and 200 mg/kg ketamine hydrochloride (Rogar/STB, London, Ontario, Canada). […] Therefore, after anaesthesia, mice will receive an intravenous injection of a fluorescent dye, rhodamine 6G (Sigma, St. Louis, Mo., USA, 0.3 mg/kg). […] Then, a midline abdominal incision will be performed, from the diaphragm, extending to the pelvic region. The skin will carefully be separated from the underlying tissue, but remained attached laterally, so the blood supply to the skin flap remained intact. The skin flap will be extended over a viewing pedestal to expose the dermal microvasculature and secured along the edges using 4.0 sutures. The exposed dermal tissues will be superfused with a bicarbonate-buffered saline pH 7.4, to avoid tissue dehydration. The microcirculation will be observed using an inverted microscope (Nikon) with a ×20 objective lens, and rhodamine 6G allows visualization and quantification of the number of rolling and adherent leukocytes, by epi-illumination at 510-560 nm, using a 590-nm emission filter. Single unbranched venules (20-40 μm in diameter) will be selected for the study. Images of the selected venule will be recorded for […], after a 15-min equilibration period and the end of this 5-min interval was considered as time 0. Leukocyte adherence will be determined upon video playback, on 100 μm vessel length (table 4). A leukocyte will be considered adherent to the endothelium if it remained stationary for 30 s or more. Leukocyte flux will be defined as the number of leukocytes per minute moving at a velocity less than that of erythrocytes, which passed a reference point in the venule. The changes in flux of rolling leukocytes will be evaluated as differences between the number of rolling leukocytes at each interval and the basal number of rolling leukocytes (table 5).
as §1

[4] = system: TNF-α; assay: TPA-induced increase of TNF-α in mouse ear; assay type: in vivo, Swiss male mice; details: for TNFalpha: ear homogenate, Mean ± S.E.M. (n = 10)
Description: (§2) A ear section of the right ear of mice were homogenized in 500 μl saline, and after centrifugation at 1,200 g for 15 min at 4° C., the PGE2 and TNF-α levels were determined by radioimmunoassay (Hoult et al., Methods Enzymol 1994) or by time-resolved fluoroimmunoassay ([…] et al., Int J. Immunopharmacol. 1995), respectively. Test compounds dissolved in the vehicle were applied topically 15 min before TPA administration.

[5] = system: PGE2; assay: TPA-induced increase of PGE2 in mouse ear; assay type: in vivo, Swiss male mice; details: for PGE2: ear homogenate, Mean ± S.E.M. (n = 10)
Description: as §2

[6] = 3 nmol topical, 1 hour after benzalkonium application
[7] = 3 nmol topical, 2 hours after benzalkonium application
[8] = 3 nmol topical, 3 hours after benzalkonium application
[9] = 3 nmol topical, 4 hours after benzalkonium application
[10] = 1 μg/ear topical 15 min before TPA
[11] = 0.48 μg/ear topical 15 min before TPA

| Compound | % inhibition 3 hours post-treatment [1] | Ear edema (left ears) value [2, 6] | Ear edema (left ears) value [2, 7] | Ear edema (left ears) value [2, 8] | Ear edema (left ears) value [2, 9] | Area under the curve (change in flux of rolling leucocytes) [3] | Area under the curve (change in vessel diameter) [3] | % inhibition 5 hours post-treatment [1] | also measured |
| --- | --- | --- | --- | --- | --- | --- | --- | --- | --- |
| CCOC(=O)O[C@]1(C(=O)COC(=O)c2ccc(CO[N+](=O)[O-])cc2)CC[C@H]2[C@@H]3CCC4=CC(=O)C=C[C@]4(C)[C@H]3[C@@H](O)C[C@@]21C [Example 2, (11β)-17-[(ethoxycarbonyl)oxy]-11-hydroxy-21-[1-oxo-[4-(nitrooxymethyl)benzoxy]]pregna-1,4-diene-3,20-dione] | 33.26% | 0.025 ± 0.008 | 0.028 ± 0.009 | 0.040 ± 0.009 | 0.061 ± 0.007 | 300 ± 75 | 175 ± 70 | – | – |
| CCOC(=O)O[C@]1(C(=O)COC(=O)CC)CC[C@H]2[C@@H]3CCC4=CC(=O)C=C[C@]4(C)[C@H]3[C@@H](O)C[C@@]21C [Prednicarbate, reference compound] | 19.58% | – | – | – | – | 412 ± 112 | 282 ± 71 | – | – |
| CC1(C)O[C@@H]2C[C@H]3[C@@H]4CCC5=CC(=O)C=C[C@]5(C)[C@@]4(F)[C@@H](O)C[C@]3(C)[C@]2(C(=O)CO)O1 [Triamcinolone acetonide, reference compound] | 14.90% | 0.037 ± 0.005 | 0.063 ± 0.010 | 0.041 ± 0.018 | 0.068 ± 0.022 | 376 ± 129 | 278 ± 78 | 12.19% | TNFalpha [4, 10]: 158.0 ± 24.6 pg/mL; PGE2 [5, 10]: 43.0 ± 3.8 ng/mL |
| CC1(C)O[C@@H]2C[C@H]3C4CCC5=CC(=O)C=C[C@]5(C)[C@@]4(F)[C@@H](O)C[C@]3(C)[C@]2(C(=O)COC(=O)c2ccc(CO[N+](=O)[O-])cc2)O1 (stereo partly drawn) [Example 1, (11β,16α)-9-fluoro-11-hydroxy-16,17-[1-methylethylidenebis(oxy)]-21-[1-oxo-[4-(nitrooxymethyl)benzoxy]]pregna-1,4-diene-3,20-dione] | 22.70% | 0.018 ± 0.004 | 0.042 ± 0.007 | 0.042 ± 0.010 | 0.070 ± 0.007 | 247 ± 35 | 114 ± 32 | 21.01% | TNFalpha [4, 11]: 149.5 ± 17.8 pg/mL; Inhibition of TNF-α release, result in words ([4]; versus prior art compound): inhibits the release of TNF-α in a higher potency than the prior art compound; PGE2 [5, 11]: 53.2 ± 4.5 ng/mL; Reduction of PGE2 level / inflammation, result in words ([5]; low dose versus higher dose of the parent compound): more effective in reducing the inflammation than the correspondent parent compound; Ear edema (left ears) value ([2]; 0.3 nmol topical, 1 hour after benzalkonium application): 0.026 ± 0.005; Ear edema (left ears) value ([2]; 0.3 nmol topical, 2 hours after benzalkonium application): 0.035 ± 0.008; Ear edema (left ears) value ([2]; 0.3 nmol topical, 3 hours after benzalkonium application): 0.053 ± 0.009; Ear edema (left ears) value ([2]; 0.3 nmol topical, 4 hours after benzalkonium application): 0.047 ± 0.007; Ear edema (left ears) value ([2]; 1 nmol topical, 1 hour after benzalkonium application): 0.020 ± 0.006; Ear edema (left ears) value ([2]; 1 nmol topical, 2 hours after benzalkonium application): 0.035 ± 0.008; Ear edema (left ears) value ([2]; 1 nmol topical, 3 hours after benzalkonium application): 0.057 ± 0.011; Ear edema (left ears) value ([2]; 1 nmol topical, 4 hours after benzalkonium application): 0.065 ± 0.010; Inhibition of ear edema, result in words ([2]; compared with triamcinolone acetonide, mainly at earlier times): dose-dependent effect in inhibiting ear edema with a better profile than triamcinolone acetonide |
